Assays:
[1] = Metabolic stability in human liver microsomes; format: in vitro ADME; settings: 5 µM, NADPH, 37 °C
Procedure: A standard metabolic stability assay was performed in the presence of mouse or human liver microsomes. YC-001 (5 µM) was incubated with the microsomes (0.125 mg mL^−1) resuspended in 0.2 mL of PBS buffer, pH 7.4 composed of 10 mM Na2HPO4, 1.8 mM KH2PO4, 137 mM NaCl, and 2.7 mM KCl. The enzymatic reaction to produce oxidized metabolites was initiated by addition of NADPH (1 mM). Samples were incubated at 37 °C for up to 240 min. Incubation without the cofactor was conducted in parallel to assess NADPH-independent clearance. The reactions were stopped with 0.2 mL of methanol followed by 0.3 mL chloroform. Residual YC-001 was extracted by vigorous shaking. To facilitate phase separation, the samples were spun down for 2 min, 15,000×g. The chloroform fraction was collected, dried down, and the extracted organic compounds were redissolved in 0.2 mL of methanol. To quantify YC-001, the samples were injected onto an Eclipse XDB-C18 column (4.6 × 150 mm, 5 µm) (Agilent Technologies) equilibrated with solvent composed of 30% acetonitrile in water (v/v), and 0.1% formic acid. YC-001 was eluted in a gradient of acetonitrile in water (30–100%) developed within 15 min at a flow rate of 1 mL min^−1, detected at 350 nm, and quantified by correlating peak areas with known quantities of an original synthetic standard. […]

ovine COX-1 = target: T1, ovine COX-1 (Ovis aries, UniProt P05979); assay: COX-1 activity assay (fluorometric); format: biochemical; settings: up to 80 µM
T1 construct: purchased Abcam
T1 sequence (P05979 25-600): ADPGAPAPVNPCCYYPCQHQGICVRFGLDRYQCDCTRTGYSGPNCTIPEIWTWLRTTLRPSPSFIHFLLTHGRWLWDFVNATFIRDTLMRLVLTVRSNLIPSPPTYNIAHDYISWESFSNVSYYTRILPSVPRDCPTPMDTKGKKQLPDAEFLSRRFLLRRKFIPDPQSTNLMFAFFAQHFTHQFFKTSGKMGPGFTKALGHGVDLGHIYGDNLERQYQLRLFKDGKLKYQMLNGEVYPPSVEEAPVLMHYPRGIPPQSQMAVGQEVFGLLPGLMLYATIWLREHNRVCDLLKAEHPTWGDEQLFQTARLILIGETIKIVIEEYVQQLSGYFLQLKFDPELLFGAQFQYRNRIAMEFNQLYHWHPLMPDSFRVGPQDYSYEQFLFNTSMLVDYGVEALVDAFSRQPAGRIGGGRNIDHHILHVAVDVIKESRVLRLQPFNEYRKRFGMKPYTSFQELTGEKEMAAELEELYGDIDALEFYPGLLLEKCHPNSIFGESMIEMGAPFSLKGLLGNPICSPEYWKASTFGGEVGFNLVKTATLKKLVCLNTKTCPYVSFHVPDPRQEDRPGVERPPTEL
Procedure: The effect of the compound YC-001 on COX-1 activity was evaluated using the COX-1 Inhibitor Screening Kit (Abcam, Cambridge, MA, USA) according to the manufacture’s protocol. Briefly, the assay is based on the fluorometric detection of Prostaglandin G2, the intermediate product generated by the COX-1 enzyme. COX reaction mix included ovine COX-1, COX probe, and COX cofactor was prepared in a 96-well plate. YC-001 working solutions were dissolved in DMSO, and then mixed with COX Reaction Mix to the final concentrations (80, 40, 20, 10, 5, 2.5, 1.25, 0.625, 0.312, 0.156, 0.078 and 0.039 µM). Equivalent volume of DMSO was used as vehicle control and SC560 was used as a positive control. All controls and samples were measured in triplicate. Then arachidonic acid was added into each well to initiate all the reactions at the same time. The fluorescence was measured at Ex/Em = 535/587 nm in a kinetic mode for 15 min at 25 °C. Five time points were chosen in the linear range of the plot and the corresponding values for the fluorescence were used to calculate the slope of the linear regression equation. Relative COX-1 activity was calculated as Eq. 5: RelativeCOX-1Activity(%)=Slopeofsample/Slopeofenzymecontrol×100 .

human clarin-1 N48K = target: T2, human clarin-1 N48K (Homo sapiens, UniProt P58418, N48K); assay: Image-based analysis of Clarin-1-N48K-Venus in HEK 293 cells; format: cell-based; settings: 24 h
T2 construct: expressed in transfected cells
T2 sequence (P58418 whole entry N48K): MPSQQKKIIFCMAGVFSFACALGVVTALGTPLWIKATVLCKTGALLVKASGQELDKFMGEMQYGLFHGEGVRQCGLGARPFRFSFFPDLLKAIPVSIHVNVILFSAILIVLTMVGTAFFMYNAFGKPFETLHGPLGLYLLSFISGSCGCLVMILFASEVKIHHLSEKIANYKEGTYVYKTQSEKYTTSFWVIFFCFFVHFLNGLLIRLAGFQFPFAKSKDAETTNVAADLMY
Procedure: HEK 293 stable cells co-expressing human clarin-1 N48K-Venus fluorescent protein and DsRed-Express-DR fusion protein were obtained from Dr. Yoshikazu Imanishi at Case Western Reserve University (CWRU). Cells were cultured in DMEM medium with 10% FBS following guidelines from ATCC. To test effects of YC-001 treatments on clarin-1 N48K-Venus amounts in these cells, an image-based assay was performed. Briefly, cells were seeded at 20,000 cells per well in 40 µL per well DMEM medium with 10% FBS in a 384-well PerkinElmer View plate coated with poly-D-lysine and cultured at 37 °C with 5% CO2 for 24 h. Cells then were treated with 10 µL per well DMEM medium with 10% FBS containing 5× the final concentration of tested compounds. […] Each compound was tested with 10 doses in a twofold dilution series, featuring three biological replicates. The 384-well plate was put back for incubation at 37 °C with 5% CO2. After 24 h of exposure to test compounds, the plate was removed, and the medium was aspirated and replaced by 20 µL per well of 4% paraformaldehyde for fixation at RT for 20 min. […] Images were analyzed by the Columbus storage and analysis system (PerkinElmer). Hoechst33342 fluorescence images were used to define nuclei and count cells. […] YFP and DsRed fluorescence intensities per cell were measured in each well.

O=C1OCC(c2ccc(Cl)s2)=C1c1cccs1 [YC-001]
initial clearance in liver microsomes [1]: even higher initial clearance compared to the fast clearance drug, verapamil
COX-1 enzymatic activity (ovine COX-1): did not see changes
effect on amount or stability of the clarin-1 N48K mutant (human clarin-1 N48K): did not affect the amount or stability

— article PMC5958115, “A novel small molecule chaperone of rod opsin and its potential therapy for retinal degeneration” (Nature Communications, 2018)
